Laboratory results as given in patent US11109611B2, “Compositions and methods that modulate digestibility in a companion animal” (Societe des Produits Nestle SA, priority 2016, dated 2021).

Legend:
Assay type in all cases: in vivo, canine
Conditions in all cases: plasma after overnight fasting in fifth week of feeding, correlations with P value < 0.01
Canines [1] = assay: Metabolite correlations with organic matter digestibility (plasma metabolomics)
Method: (§1) 83 Canines were all fed Diet A for 5 weeks, followed by a 1 week transition period and then 15 were fed Diet B for 5 weeks as shown in the Table 1 below. Plasma samples were taken after overnight fasting using EDTA vacutainer tubes during the fifth week of feeding of each diet. After centrifugation, plasma was aliquoted into cryovials and frozen at −80° C.
(§2) Metabolomic analysis was carried out using the following methods by Metabolon Inc. Samples were extracted and split into equal parts for analysis on GC/MS and LC/MS/MS platforms. Proprietary software was used to match ions to an in-house library of standards for metabolite identification and for metabolite quantitation by peak area integration by Metabolon Inc. Mass and retention index are provided in the following tables such that each metabolite can be uniquely identified and individually distinguished.
(§3) At the time of analysis, samples were thawed and extracts prepared to remove protein, dislodge small molecules bound to protein or physically trapped in the precipitated protein matrix, and recover a wide range of chemically diverse metabolites. A separate aliquot of each experimental plasma sample was taken then pooled for the creation of “Client Matrix” (CMTRX) samples. These CMTRX samples were injected throughout the platform run and served as technical replicates, allowing variability in the quantitation of all consistently detected biochemicals to be determined and overall process variability and platform performance to be monitored. Extracts of all experimental and CMTRX samples were split for analysis on the GC/MS and LC/MS/MS platforms.
(§4) The CMTRX technical replicate samples were treated independently throughout the process as if they were client study samples. All process samples (CMTRX and Grob test mixtures of organic components used to assess GC column performance, process blanks, etc.) were spaced evenly among the injections for each day and all client samples were randomly distributed throughout each day's run. Data were collected over multiple platform run days and thus ‘block normalized’ by calculating the median values for each run-day block for each individual compound. […] Missing values (if any) were assumed to be below the level of detection for that biochemical with the instrumentation used and were imputed with the observed minimum for that particular biochemical.
(§5) A number of internal standards were added to each experimental and process standard sample just prior to injection into the mass spectrometers.
Metabolite correlations with organic matter digestibility were determined based on plasma metabolomics (Table 2). […] The metabolite compositions of the two different diets were determined to identify relative levels of specific compounds.

Canines [2] = assay: Metabolite correlations with dry matter digestibility (plasma metabolomics)
Method: as §1, §2, §3, §4, §5
Metabolite correlations with dry matter digestibility were determined based on plasma metabolomics (Table 6). […] Feeding different levels of these compounds (diet B vs diet A; Table 7), and noting changes in dry matter digestibility (Table 8), served as a validation model. The metabolite compositions of the two different diets were determined to identify relative levels of specific compounds.

Canines [3] = assay: Metabolite correlations with fiber digestibility (plasma metabolomics)
Method: as §1, §2, §3, §4
A number of internal standards were added to each experimental and process standard sample just prior to injection into the mass spectrometers. A measure of the platform variability (7%) was determined by calculating the median relative standard deviation (RSD) for these internal standards. Because these standards are added to the samples immediately prior to injection into the instrument, this value reflects instrument variation. In addition, the median relative standard deviation (RSD) for the biochemicals that were consistently measured in the CMTRX represents the total variability within the process for the actual experimental samples and the variability in quantitation of the endogenous metabolites within these samples (12%).
589 total metabolites were detected in plasma. […]
Metabolite correlations with fiber digestibility were determined based on plasma metabolomics (Table 10). […] The metabolite compositions of the two different diets were determined in order to identify relative levels of specific compounds.

Molecule	Correlation with organic matter digestibility (Canines [1])	Correlation with dry matter digestibility (Canines [2])	Correlation with fiber digestibility (Canines [3])
CCCCCCCCCCCCCCCCCC(=O)O [stearate (18:0)]	0.2845	–	–
campesterol	−0.3283	−0.3101	–
threonate	0.3788	0.3492	–
O=C(O)CO [glycolate (hydroxyacetate)]	0.3449	0.3124	–
CCCCCCCCCCCCCCCC(=O)O [palmitate (16:0)]	0.3027	0.2862	–
CCCCC/C=C\C/C=C\CCCCCCCCCC(=O)O [dihomo-linoleate (20:2n6)]	0.5242	0.4696	–
arabonate	−0.3117	−0.3013	–
CCCCC/C=C\C/C=C\C/C=C\C/C=C\CCCC(=O)O [arachidonate (20:4n6)]	0.5395	0.4779	–
C[n+]1cccc(C(=O)[O-])c1 [trigonelline (N′-methylnicotinate)]	−0.5801	−0.5297	–
Cc1c(C)c2c(c(C)c1O)CC[C@@](C)(CCC[C@H](C)CCC[C@H](C)CCCC(C)C)O2 [alpha-tocopherol]	–	–	−0.3263
CCCCC/C=C\C/C=C\CCCCCCCC(=O)O[C@H](CO)COP(=O)(O)OCCN [2-linoleoylglycerophosphoethanolamine]	−0.3461	−0.3262	–
CC(O)CC(=O)O (centres unmarked) [3-hydroxybutyrate (BHBA)]	0.4249	0.3858	–
CCCCC/C=C\C/C=C\C/C=C\C/C=C\CCCCCC(=O)O [adrenate (22:4n6)]	0.4225	0.366	–
OC[C@@H](O)C(O)[C@H](O)CO [arabitol]	−0.3609	−0.369	–
CCCCC/C=C\C/C=C\CCCCCCCC(=O)O [linoleate (18:2n6)]	0.287	–	–
CCCCCCCC/C=C\CCCCCCCC(=O)OC(CO)COP(=O)(O)OCCN (centres unmarked) [2-oleoylglycerophosphoethanolamine]	−0.3761	−0.3648	–
CCCCCCCC(=O)O[C@H](CC(=O)O)C[N+](C)(C)C [octanoylcarnitine]	0.3604	0.3264	–
eicosenoate (20:1n9 or 11)	0.4051	0.3674	–
CC(C)C(=O)C(=O)O [3-methyl-2-oxobutyrate]	0.3345	0.3102	–

Molecule	Correlation with organic matter digestibility (Canines [1])	Correlation with dry matter digestibility (Canines [2])	Correlation with fiber digestibility (Canines [3])
dihomo-linolenate (20:3n3 or n6)	0.4357	0.3649	–
OC[C@H]1OC[C@H](O)[C@@H](O)[C@@H]1O [1,5-anhydroglucitol (1,5-AG)]	−0.2973	–	–
O=C(O)C1CCCCN1 (centres unmarked) [pipecolate]	0.415	0.3661	–
CCC(N)C(=O)O (centres unmarked) [2-aminobutyrate]	0.4586	0.4535	–
CCCCC/C=C\C/C=C\CCCCCCCC(=O)OCC(O)COP(=O)(O)OCCN (centres unmarked) [1-linoleoylglycerophosphoethanolamine]	−0.2924	–	–
CCCCCCCCCCCCCCCC(=O)OCC(O)CO (centres unmarked) [1-palmitoylglycerol (1-monopalmitin)]	–	–	−0.3548
CC/C=C\C/C=C\C/C=C\C/C=C\C/C=C\CCCCCC(=O)O [docosapentaenoate (n3 DPA; 22:5n3)]	0.4157	0.3814	–
N[C@@H](CCC(=O)N[C@@H](CSSC[C@H](N)C(=O)O)C(=O)NCC(=O)O)C(=O)O [cysteine-glutathione disulfide]	−0.5693	−0.5458	–
CC(C)(O)C(=O)O [2-hydroxyisobutyrate]	0.3269	0.2975	–
CCCCCCCCCCCCCCCCC(=O)OC[C@@H](O)COP(=O)(O)OCCN [1-heptadecanoylglycerophosphoethanolamine]	−0.4779	−0.4635	−0.4181
linolenate [alpha or gamma; (18:3n3 or 6)]	0.3932	0.372	–
OC[C@@H](O)[C@@H](O)[C@@H](O)CO [ribitol]	–	–	−0.3122
O=C(O)C(O)CO (centres unmarked) [glycerate]	0.3968	0.3423	–
CCCCC/C=C\C/C=C\C/C=C\C/C=C\C/C=C\CCC(=O)O [docosapentaenoate (n6 DPA; 22:5n6)]	0.4971	0.4484	–
1-palmitoylplasmenylethanolamine	−0.4149	−0.4127	−0.3651
CCCCCC/C=C\CCCCCCCC(=O)O [palmitoleate (16:1n7)]	0.3097	0.3089	–
CC(C)(O)CC(=O)O [beta-hydroxyisovalerate]	0.3342	0.2994	–
CCCCCCCC/C=C\CCCCCCCC(=O)OCC(O)COP(=O)(O)OCCN (centres unmarked) [1-oleoylglycerophosphoethanolamine]	−0.4678	−0.4501	–
C[N+]1(C)CCC[C@H]1C(=O)[O-] [stachydrine]	−0.3927	−0.3121	–
